The target in test [1] is SOS1 (Homo sapiens (Human), UniProt Q07889). In words: Ras-SOS interaction assay (HTRF). It counts as biochemical. In general terms: Time-resolved FRET reads energy transfer from a long-lived donor to a nearby acceptor.
The subject of test [2] is MIA PaCa-2 cells (K-Ras G12C). In words: Ras-SOS cellular growth inhibition assay (CellTiter-Glo, 3D). The format is cell-based. Particulars: Homo sapiens. The essentials: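 MIA PaCa-2 cells grown in ultra-low-attachment plates (3D) in DMEM/Ham's F12 with 10% FCS and 2.5% horse serum, treated the day after seeding with a 9-point 3-fold compound series for about 5 days. Viability by CellTiter-Glo luminescence; IC50 from four-parameter fit.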
A general note: Cellular ATP, detected with luciferase, serves as a proxy for viable cell number.

The test system of test [3] is NCI-H1975 cells (EGFR T790M L858R). In words: EGFR-SOS cellular inhibition assay (CellTiter-Glo, 3D). Particulars: Homo sapiens. It counts as cell-based.
Setting [4] is: K-RasG13D, read-out: IC50 value against SOS1.
The mark [5] stands for this setting: MIA PaCa-2, 120 h, MIA PaCa-2, 3D proliferation, about 5 days, read-out: Bio-Cell-Prolif-3D (MiaPaca2 IC50).
The mark [6] stands for this setting: 120 h, NCI-H1975, 3D proliferation, about 5 days, read-out: Bio-Cell-Prolif-3D (H1975 IC50).
Setting [7] is: NCI-H1975, EGFR T790M L858R, read-out: IC50 in inhibiting growth of NCI-H1975 cell line.
Setting [8] is: K-RasG13D utilized, read-out: IC50 inhibition of SOS.
Setting [9] is: MIA PaCa-2, MIA PaCa-2, read-out: IC50 in inhibiting MIA PaCa-2 cell growth.

Where two headings read alike, the source gives them in different places. A value given as a limit tells only on which side of the number the result lay.

The text below walks through data of patent US11648254B2 (Kumquat Biosciences Inc., priority 2021, dated 2023).

By IC50 is commonly meant the concentration needed to halve the response being measured.

SOS1, sequence (Q07889 564-1049): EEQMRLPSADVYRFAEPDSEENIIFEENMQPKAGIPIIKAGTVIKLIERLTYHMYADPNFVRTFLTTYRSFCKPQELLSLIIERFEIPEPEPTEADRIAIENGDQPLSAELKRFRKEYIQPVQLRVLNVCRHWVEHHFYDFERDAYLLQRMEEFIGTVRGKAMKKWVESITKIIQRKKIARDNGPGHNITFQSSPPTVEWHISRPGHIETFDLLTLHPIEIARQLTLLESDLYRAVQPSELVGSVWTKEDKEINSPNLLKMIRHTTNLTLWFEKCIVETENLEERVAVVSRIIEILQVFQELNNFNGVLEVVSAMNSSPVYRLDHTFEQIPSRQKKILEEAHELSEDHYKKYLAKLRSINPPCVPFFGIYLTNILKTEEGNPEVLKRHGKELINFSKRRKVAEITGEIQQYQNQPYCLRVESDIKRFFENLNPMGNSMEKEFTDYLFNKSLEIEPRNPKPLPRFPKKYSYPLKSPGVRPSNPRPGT

With `Cc1nc(N[C@H](C)c2cccc(C(F)F)c2F)c2cc(C3(C#N)CC3)c(O[C@H]3CCOC3)nc2n1` [Compound 297, 1-(4-(((R)-1-(3-(difluoromethyl)-2-fluorophenyl)ethyl)amino)-2-methyl-7-(((S)-tetrahydrofuran-3-yl)oxy)pyrido[2,3-d]pyrimidin-6-yl)cyclopropane-1-carbonitrile], the IC50 in test [1] (setting [4]) was below 0.05 µM; in test [2] (setting [5]), 1 to 10 µM; in test [3] (setting [6]), at most 1 µM; in test [3] (setting [7]), below 0.5 µM.
As to `C[C@@H](Nc1ncnc2nc(OC3COC3)c(C3CCS(=O)(=O)CC3)cc12)c1cccc(C(F)F)c1F` [Compound 227, (R)-4-(4-((1-(3-(difluoromethyl)-2-fluorophenyl)ethyl)amino)-7-(oxetan-3-yloxy)pyrido[2,3-d]pyrimidin-6-yl)tetrahydro-2H-thiopyran 1,1-dioxide], the IC50 was below 0.1 µM in test [1] (setting [8]), below 0.05 µM in test [1] (setting [4]), at most 1 µM in test [2] (setting [5]) and at most 1 µM in test [3] (setting [6]).
In the case of `C[C@@H](Nc1ncnc2nc(Cl)c(N3CCS(=O)(=O)CC3)cc12)c1cccc(C(F)F)c1F` [Compound 261, (R)-4-(7-chloro-4-((1-(3-(difluoromethyl)-2-fluorophenyl)ethyl)amino)pyrido [2,3-d]pyrimidin-6-yl)thiomorpholine 1,1-dioxide], the IC50 in test [1] (setting [8]) was below 0.1 µM; in test [1] (setting [4]) it was below 0.05 µM; in test [2] (setting [5]), at most 1 µM; in test [2] (setting [9]), below 0.5 µM; in test [3] (setting [6]), at most 1 µM; in test [3] (setting [7]), below 0.5 µM.
`COc1nc2nc(C)nc(N[C@H](C)c3cccc(C(F)(F)CO)c3F)c2cc1C1(C#N)CC1` [Compound 206, (R)-1-(4-((1-(3-(1,1-difluoro-2-hydroxyethyl)-2-fluorophenyl)ethyl)amino)-7-methoxy-2-methylpyrido[2,3-d]pyrimidin-6-yl)cyclopropane-1-carbonitrile]: the IC50 is below 0.1 µM in test [1] (setting [8]); below 0.05 µM in test [1] (setting [4]); at most 1 µM in test [2] (setting [5]); below 0.5 µM in test [2] (setting [9]); at most 1 µM in test [3] (setting [6]); below 0.5 µM in test [3] (setting [7]).
On to `C[C@@H](Nc1ncnc2nc(Cl)c(C3CCS(=O)(=O)CC3)cc12)c1cccc(C(F)F)c1F` [Compound 393, (R)-4-(7-chloro-4-((1-(3-(difluoromethyl)-2-fluorophenyl)ethyl)amino)pyrido [2,3-d]pyrimidin-6-yl)tetrahydro-2H-thiopyran 1,1-dioxide], for which the IC50 is below 0.1 µM in test [1] (setting [8]); below 0.05 µM in test [1] (setting [4]); at most 1 µM in test [2] (setting [5]); below 0.5 µM in test [2] (setting [9]); at most 1 µM in test [3] (setting [6]); below 0.5 µM in test [3] (setting [7]).
On to `Cc1nc(N[C@H](C)c2cccc(C(F)(F)F)c2C)c2cc(C3CCS(=O)(=O)CC3)c(Cl)nc2n1` [Compound 388, (R)-4-(7-chloro-2-methyl-4-((1-(2-methyl-3-(trifluoromethyl)phenyl)ethyl)amino)pyrido[2,3-d]pyrimidin-6-yl)tetrahydro-2H-thiopyran 1,1-dioxide], for which the IC50 in test [1] (setting [8]) is below 0.1 µM; in test [1] (setting [4]), below 0.05 µM; in test [2] (setting [5]), at most 1 µM; in test [2] (setting [9]), below 0.5 µM; in test [3] (setting [6]), at most 1 µM; in test [3] (setting [7]), below 0.5 µM.
For `Cc1nc(N[C@H](C)c2cccc(C(F)F)c2F)c2cc(C3CCS(=N)(=O)CC3)c(OCCN(C)C)nc2n1` (stereo partly drawn) [Compound 250, (R)-4-(4-((1-(3-(difluoromethyl)-2-fluorophenyl)ethyl)amino)-7-(2-(dimethylamino)ethoxy)-2-methylpyrido[2,3-d]pyrimidin-6-yl)-1-iminohexahydro-116-thiopyran 1-oxide], the IC50 is below 0.1 µM in test [1] (setting [8]), below 0.05 µM in test [1] (setting [4]), above 10 µM in test [2] (setting [5]) and 1 to 10 µM in test [3] (setting [6]).
Turning to `Cc1nc(N[C@H](C)c2cccc(C(F)F)c2F)c2cc(N3CCN(C(C)C)CC3)c(NC3COC3)nc2n1` [Compound 192, (R)-N4-(1-(3-(difluoromethyl)-2-fluorophenyl)ethyl)-6-(4-isopropylpiperazin-1-yl)-2-methyl-N7-(oxetan-3-yl)pyrido[2,3-d] pyrimidine-4,7-diamine], the IC50 in test [1] (setting [8]) is below 0.1 µM; in test [1] (setting [4]) it was below 0.05 µM; in test [2] (setting [5]) it was 1 to 10 µM; in test [3] (setting [6]), at most 1 µM.
Consider `COc1nc2nc(C)nc(N[C@H](C)c3cccc(C(F)(F)C4CCN(C)CC4)c3F)c2cc1C1(C#N)CC1` [Compound 210, (R)-1-(4-((1-(3-(difluoro(1-methylpiperidin-4-yl)methyl)-2-fluorophenyl)ethyl)amino)-7-methoxy-2-methylpyrido[2,3-d]pyrimidin-6-yl)cyclopropane-1-carbonitrile], for which the IC50 in test [1] (setting [8]) was below 0.1 µM; in test [1] (setting [4]), below 0.05 µM; in test [2] (setting [5]), at most 1 µM; in test [2] (setting [9]), below 0.5 µM; in test [3] (setting [6]), at most 1 µM; in test [3] (setting [7]), below 0.5 µM.
As to `COc1nc2nc(OCC3CN(C)C3)nc(N[C@H](C)c3cccc(C(F)F)c3F)c2cc1C1(C#N)CC1` [Compound 203, (R)-1-(4-((1-(3-(difluoromethyl)-2-fluorophenyl)ethyl)amino)-7-methoxy-2-((1-methylazetidin-3-yl)methoxy)pyrido[2,3-d]pyrimidin-6-yl)cyclopropane-1-carbonitrile], the IC50 was below 0.1 µM in test [1] (setting [8]), below 0.05 µM in test [1] (setting [4]), 1 to 10 µM in test [2] (setting [5]) and at most 1 µM in test [3] (setting [6]).
Turning to `COc1nc2ncnc(N[C@H](C)c3cccc(C(F)(F)C4CCN(C(C)C)CC4)c3)c2cc1C1CCN(C(C)C)CC1` [Compound 419, (R)—N-(1-(3-(difluoro(1-isopropylpiperidin-4-yl)methyl)phenyl)ethyl)-6-(1-isopropylpiperidin-4-yl)-7-methoxypyrido[2,3-d]pyrimidin-4-amine], the concentration for half-maximal inhibition (IC50) in test [1] (setting [8]) was below 0.1 µM; in test [1] (setting [4]), below 0.05 µM; in test [2] (setting [5]) it was at most 1 µM; in test [2] (setting [9]) it was below 0.5 µM; in test [3] (setting [6]), at most 1 µM; in test [3] (setting [7]), below 0.5 µM.
With `Cc1nc(N[C@H](C)c2cccc(C(F)F)c2F)c2cc(C3CCS(=O)(=O)CC3)c(OCCN(C)C)nc2n1` [Compound 145, (R)-4-(4-((1-(3-(difluoromethyl)-2-fluorophenyl)-ethyl)amino)-7-(2-(dimethylamino)ethoxy)-2-methylpyrido[2,3-d]pyrimidin-6-yl)tetrahydro-2H-thiopyran 1,1-dioxide], the IC50 in test [1] (setting [8]) was below 0.1 µM; in test [1] (setting [4]) it was below 0.05 µM; in test [2] (setting [5]), at most 1 µM; in test [2] (setting [9]), below 0.5 µM; in test [3] (setting [6]) it was at most 1 µM; in test [3] (setting [7]) it was below 0.5 µM.
Regarding `CNCCOc1nc2nc(C)nc(N[C@H](C)c3cccc(C(F)F)c3F)c2cc1N1CCN(C(C)C)CC1` [Compound 406, (R)-N-(1-(3-(difluoromethyl)-2-fluorophenyl)ethyl)-6-(4-isopropylpiperazin-1-yl)-2-methyl-7-(2-(methylamino)ethoxy)pyrido[2,3-d] pyrimidin-4-amine], the IC50 was below 0.1 µM in test [1] (setting [8]); below 0.05 µM in test [1] (setting [4]); at most 1 µM in test [2] (setting [5]); below 0.5 µM in test [2] (setting [9]); at most 1 µM in test [3] (setting [6]); below 0.5 µM in test [3] (setting [7]).
`CC(C)N1CCC(c2cc3c(N[C@H](C)c4cccc(C(F)F)c4F)ncnc3nc2OC2COC2)CC1` [Compound 317, (R)-N-(1-(3-(difluoromethyl)-2-fluorophenyl)ethyl)-6-(1-isopropylpiperidin-4-yl)-7-(oxetan-3-yloxy)pyrido[2,3-d] pyrimidin-4-amine]: the IC50 was below 0.1 µM in test [1] (setting [8]); below 0.05 µM in test [1] (setting [4]); 1 to 10 µM in test [2] (setting [5]); at most 1 µM in test [3] (setting [6]); below 0.5 µM in test [3] (setting [7]).
As to `Cc1nc(N[C@H](C)c2cccc(C(F)F)c2F)c2cc(N3CCN(C)CC3)c(OC3COC3)nc2n1` [Compound 411, (R)-N-(1-(3-(difluoromethyl)-2-fluorophenyl)ethyl)-2-methyl-6-(4-methylpiperazin-1-yl)-7-(oxetan-3-yloxy)pyrido[2,3-d]pyrimidin-4-amine], the IC50 is below 0.1 µM in test [1] (setting [8]); below 0.05 µM in test [1] (setting [4]); at most 1 µM in test [2] (setting [5]); below 0.5 µM in test [2] (setting [9]); at most 1 µM in test [3] (setting [6]); below 0.5 µM in test [3] (setting [7]).
With `CCN1CCN(c2cc3c(N[C@H](C)c4cccc(C(F)F)c4F)nc(C)nc3nc2OCCOC)CC1` [Compound 314, (R)-N-(1-(3-(difluoromethyl)-2-fluorophenyl)ethyl)-6-(4-ethylpiperazin-1-yl)-7-(2-methoxyethoxy)-2-methylpyrido[2,3-d] pyrimidin-4-amine], the concentration for half-maximal inhibition (IC50) in test [1] (setting [8]) is below 0.1 µM; in test [1] (setting [4]), below 0.05 µM; in test [2] (setting [5]), at most 1 µM; in test [2] (setting [9]) it was below 0.5 µM; in test [3] (setting [6]) it was at most 1 µM.
As to `COc1nc2ncnc(N[C@H](C)c3cccc(C(C)(F)F)c3F)c2cc1N1CCS(=O)(=O)CC1` [Compound 292, (R)-4-(4-((1-(3-(1,1-difluoroethyl)-2-fluorophenyl)ethyl)amino)-7-methoxypyrido[2,3-d]pyrimidin-6-yl)thiomorpholine 1,1-dioxide], the IC50 in test [1] (setting [8]) is below 0.1 µM; in test [1] (setting [4]), below 0.05 µM; in test [2] (setting [5]) it was at most 1 µM; in test [2] (setting [9]), below 0.5 µM; in test [3] (setting [6]), at most 1 µM; in test [3] (setting [7]), below 0.5 µM.
